The supplement of paper PMC10307832

How the values were obtained:
Experiment in all cases: relative viability (nuclei count vs DMSO), 5 days (fraction); higher = more cells survive
IDH-C35 + Pemetrexed = compound: Cc1ccccc1C(C(=O)NC1CCCCC1)N(C(=O)Cn1ccnc1C)c1cccc(F)c1 [IDH-C35] + Nc1nc2[nH]cc(CCc3ccc(C(=O)N[C@@H](CCC(=O)O)C(=O)O)cc3)c2c(=O)[nH]1 [Pemetrexed] (partner 0.2 µM)
Outline: (§1)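 Relative viability equals treated-well nuclei counts divided by vehicle-well nuclei counts. Counts came from 4× images of lung cancer cell lines grown in 1536-well plates for 5 days after pin-tool dosing on the day after seeding. Dosing used one drug alone or a fixed anchor-drug dose plus five library-drug doses (not always all listed) in √10 steps, and values are medians of duplicate plates.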

[1] = compound: CC1=C(C(=NN1)C)CC2=C(C3=C(S2)N(C(=O)N(C3=O)C)CC(C)C)C(=O)N4C[C@@H](CO4)O + Cc1nc(Nc2ncc(C(=O)Nc3c(C)cccc3Cl)s2)cc(N2CCN(CCO)CC2)n1 [Dasatinib] (partner 0.075 µM)
Outline: as §1

IDH-C35 + Bortezomib = compound: Cc1ccccc1C(C(=O)NC1CCCCC1)N(C(=O)Cn1ccnc1C)c1cccc(F)c1 [IDH-C35] + CC(C)C[C@H](NC(=O)[C@H](Cc1ccccc1)NC(=O)c1cnccn1)B(O)O [Bortezomib] (partner 0.002 µM)
Outline: as §1

IDH-C35 + Tozasertib = compound: Cc1ccccc1C(C(=O)NC1CCCCC1)N(C(=O)Cn1ccnc1C)c1cccc(F)c1 [IDH-C35] + Cc1cc(Nc2cc(N3CCN(C)CC3)nc(Sc3ccc(NC(=O)C4CC4)cc3)n2)n[nH]1 [Tozasertib] (partner 0.1 µM)
Outline: as §1

Cell Line | relative viability (IDH-C35 + Pemetrexed; first compound 0.08 µM) | relative viability (IDH-C35 + Pemetrexed; first compound 0.253 µM) | relative viability (IDH-C35 + Pemetrexed; first compound 0.8 µM) | relative viability (IDH-C35 + Pemetrexed; first compound 2.53 µM) | relative viability (IDH-C35 + Pemetrexed; first compound 8 µM) | relative viability ([1]; first compound 0.0025 µM) | relative viability ([1]; first compound 0.007906 µM) | relative viability ([1]; first compound 0.025 µM) | relative viability ([1]; first compound 0.07906 µM) | relative viability ([1]; first compound 0.25 µM) | relative viability (IDH-C35 + Bortezomib; first compound 0.08 µM) | relative viability (IDH-C35 + Bortezomib; first compound 0.253 µM) | relative viability (IDH-C35 + Bortezomib; first compound 0.8 µM) | relative viability (IDH-C35 + Bortezomib; first compound 2.53 µM) | relative viability (IDH-C35 + Bortezomib; first compound 8 µM) | relative viability (IDH-C35 + Tozasertib; first compound 0.08 µM) | relative viability (IDH-C35 + Tozasertib; first compound 0.253 µM) | relative viability (IDH-C35 + Tozasertib; first compound 0.8 µM) | relative viability (IDH-C35 + Tozasertib; first compound 2.53 µM) | relative viability (IDH-C35 + Tozasertib; first compound 8 µM)
201T | 0.329 | 0.351 | 0.367 | 0.343 | 0.321 | 0.579 | 0.624 | 0.6 | 0.59 | 0.551 | 1.09 | 1.1 | 1.08 | 1.09 | 1.09 | 0.927 | 0.914 | 0.893 | 0.928 | 0.828
A-427 | 0.952 | 0.981 | 0.899 | 1.02 | 1.04 | 0.746 | 0.84 | 0.727 | 0.733 | 0.764 | 0.977 | 1.04 | 1.01 | 0.934 | 0.952 | 0.216 | 0.221 | 0.215 | 0.206 | 0.182
ABC-1 |  |  |  |  |  |  | 0.346 |  | 0.453 | 0.517 | 0.391 | 0.306 | 0.299 | 0.339 | 0.362 | 0.188 | 0.171 | 0.188 | 0.146 | 0.176
BEN | 0.633 | 0.929 | 0.73 | 0.762 | 0.857 | 0.296 | 0.289 | 0.277 | 0.274 | 0.298 | 0.897 | 0.921 | 0.799 | 0.881 | 0.936 | 0.5 | 0.429 | 0.515 | 0.474 | 0.552
CAL-12T | 1.23 | 1.14 | 1.37 | 1.15 | 1.12 | 0.49 | 0.475 | 0.465 | 0.317 | 0.343 | 0.975 | 0.863 | 1.03 | 1.05 | 0.85 | 0.307 | 0.306 | 0.303 | 0.379 | 0.301
COR-L23 | 0.18 | 0.205 | 0.2 | 0.201 | 0.173 | 0.561 | 0.533 | 0.427 | 0.375 | 0.449 | 0.927 | 0.995 | 1.01 | 0.983 | 0.909 | 0.253 | 0.174 | 0.263 | 0.195 | 0.158
COR-L 105 | 1.03 | 1.19 | 0.954 | 0.912 | 1 | 0.477 | 0.298 | 0.34 | 0.273 | 0.341 | 0.902 | 0.943 | 0.752 | 0.66 | 0.489 | 0.351 | 0.313 | 0.386 | 0.383 | 0.337
Calu-6 |  |  |  |  |  |  |  |  |  |  | 0.971 | 1 | 1.04 | 1.07 | 0.955 |  |  |  |  | 
ChaGo-K-1 | 0.244 | 0.27 | 0.273 | 0.265 | 0.248 | 0.616 | 0.605 | 0.565 | 0.503 | 0.513 | 0.956 | 0.942 | 1.09 | 0.939 | 1.03 | 0.22 | 0.231 | 0.221 | 0.258 | 0.203
EBC-1 |  |  |  |  |  |  |  |  |  |  | 0.544 | 0.575 | 0.493 | 0.613 | 0.506 |  |  |  |  | 
EKVX | 0.443 | 0.332 | 0.395 | 0.369 | 0.42 | 0.61 | 0.53 | 0.544 | 0.302 | 0.303 | 1.18 | 0.995 | 0.995 | 1.04 | 0.993 | 0.422 | 0.373 | 0.361 | 0.378 | 0.344
EMC-BAC-2 | 0.457 | 0.477 | 0.473 | 0.463 | 0.398 | 0.341 | 0.364 | 0.326 | 0.336 | 0.34 | 1.01 | 1.08 | 1.13 | 1.09 | 1.11 | 0.304 | 0.298 | 0.314 | 0.28 | 0.283
EPLC-272H | 0.276 | 0.388 | 0.397 | 0.34 | 0.394 | 0.527 | 0.376 | 0.418 | 0.24 | 0.305 | 0.906 | 0.962 | 1.05 |  | 0.856 | 0.262 | 0.193 | 0.254 | 0.333 | 0.217
H3255 | 0.595 | 0.589 | 0.573 | 0.632 | 0.499 | 0.42 | 0.319 | 0.283 | 0.343 | 0.347 | 0.682 | 0.856 | 0.816 | 0.863 | 1.05 | 0.59 | 0.6 | 0.522 | 0.511 | 0.703
HARA | 0.278 | 0.239 | 0.326 | 0.256 | 0.254 | 0.243 | 0.263 | 0.28 | 0.231 | 0.235 | 1.18 | 1.04 | 1.13 | 1.15 | 1.05 | 0.0971 | 0.135 | 0.104 |  | 0.133
HCC-15 | 0.206 | 0.235 | 0.223 | 0.226 | 0.227 | 0.605 | 0.601 | 0.682 | 0.574 | 0.656 | 1.03 | 0.958 | 1.01 | 0.936 | 0.982 | 0.493 | 0.463 | 0.342 |  | 0.323
HCC-44 | 0.6 | 0.639 | 0.658 | 0.633 | 0.667 |  |  |  |  |  | 0.899 | 0.934 | 0.88 | 0.86 | 0.843 | 1.06 | 0.906 | 1 | 0.903 | 0.96
HCC-78 | 0.918 | 0.918 | 0.897 | 0.912 | 0.943 | 0.392 | 0.486 | 0.374 | 0.366 | 0.236 | 0.581 | 0.521 | 0.587 | 0.563 | 0.446 | 0.403 | 0.363 | 0.388 | 0.383 | 0.254
